Data reported in patent publication US20090312406A1, “COUMARIN COMPOUNDS AND THEIR USE FOR TREATING VIRAL INFECTION” (priority 2008, published 2009).
Where two headings read alike, the source gives them in different places.

System: Influenza A/WSN/33 (H1N1) virus
Assay: In vitro anti-influenza virus assay (neutralization test), cytopathic effect on MDCK cells
Assay type: cell-based
Conditions: MDCK cells, 72 h, read-out: IC50 (concentration reducing virus-induced cytopathic effect by 50%)
Experimental: Anti-influenza activities of the coumarin compounds were evaluated by measuring the ability of a test compound to inhibit the cytopathic effect induced by an influenza virus on MDCK cells. The 96-well tissue culture plates were seeded with 200 μL of MDCK cells at a concentration of 1.1×10^5 cells/mL in DMEM with 10% fetal bovine serum (FBS). The plates were incubated for 24-30 h at 37° C. and were used at about 90% confluency. Influenza A/WSN/33 (H1N1) virus (100 TCID50) was added to the cells and incubated at 35° C. for 1 h. After adsorption, the infected cell plates were overlaid with 50 μL of DMEM plus 2% FBS and a test compound with different concentrations. The plate was incubated at 35° C. for 72 h. At the end of incubation, the plates were fixed by the addition of 100 μL of 4% formaldehyde for 1 h at room temperature. After the removal of formaldehyde, the plates were stained with 0.1% crystal violet for 15 min at room temperature. The plates were washed and dried, and the density of the well was measured at 570 nm. The concentration required for a test compound to reduce the virus-induced cytopathic effect (CPE) by 50% relative to the virus control was expressed as IC50.
Compounds 1 and 95 were also tested on various influenza virus strains. Amantadine or Relenza was also tested for comparison. IC50 is defined as the concentration required for a test compound to reduce the virus-induced cytopathic effect (CPE) by 50% relative to the virus control.

[1] = lower bound (10 nM), upper in μM

| Structure (SMILES) | IC50 [1] [nM] | IC50 (ranges given) [nM] |
| --- | --- | --- |
| CCc1cc(=O)oc2c1ccc1oc(C(=O)c3ccccc3)c(-c3ccccc3)c12 [Compound 9] | 10 to 999 |  |
| CCCc1c(C(=O)c2ccccc2)oc2ccc3c(C)cc(=O)oc3c12 [Compound 155] | 10 to 999 |  |
| Cc1cc(=O)oc2c1ccc1oc(C(=O)c3ccccc3)c(-c3ccc([N+](=O)[O-])cc3)c12 [Compound 145] | 10 to 999 |  |
| Cc1cc(=O)oc2c1ccc1oc(C(O)c3ccccc3)cc12 (centres unmarked) [Compound 226] |  | 1000 to 5900 |
| Cc1cc(=O)oc2c1ccc1oc(C(=O)c3cccc(OCCO)c3)c(-c3ccccc3)c12 [Compound 184] |  | 6000 to 25000 |
| Cc1cc(=O)oc2c1ccc1oc(C(=O)c3ccccc3)c(/C=C/c3ccccc3)c12 [Compound 161] |  | 1000 to 5900 |
| O=C(c1ccccc1)c1oc2ccc3c4c(c(=O)oc3c2c1-c1ccccc1)CCC4 [Compound 20] | 10 to 999 |  |
| Cc1cc(=O)oc2c1ccc1oc(C(=O)c3ccccc3)c(-c3ccccc3Br)c12 [Compound 138] | 10 to 999 |  |
| Cc1ccsc1C(=O)c1oc2ccc3c(C)cc(=O)oc3c2c1-c1ccccc1 [Compound 100] | 10 to 999 |  |
| Cc1cc(=O)oc2c1ccc1oc(C(=O)c3cccc(OCCCN(C)C)c3)c(-c3ccccc3)c12 [Compound 87] |  | 6000 to 25000 |
| COc1cccc(C(=O)c2oc3ccc4c(C)cc(=O)oc4c3c2-c2cccc(F)c2)c1 [Compound 246] | 10 to 999 |  |
| Cc1cc(=O)oc2c1ccc1oc(C(=O)c3cccc(OCCN4Cc5ccccc5C4)c3)c(-c3ccccc3)c12 [Compound 241] |  | 1000 to 5900 |
| O=Cc1cc(=O)oc2c1ccc1oc(C(=O)c3ccccc3)c(-c3ccccc3)c12 [Compound 10] |  | 1000 to 5900 |
| Cc1cc(=O)oc2c1ccc1oc(C(=O)c3ccccc3)c(-c3ccc(Cl)cc3)c12 [Compound 137] | 10 to 999 |  |
| COc1cccc(C(=O)c2oc3ccc4c(C)cc(=O)oc4c3c2-c2ccc(Br)cc2)c1 [Compound 252] | 10 to 999 |  |
| Cc1c(C)c2ccc3oc(C(=O)c4ccccc4)c(-c4ccccc4)c3c2oc1=O [Compound 6] | 10 to 999 |  |
| Cc1cc(=O)oc2c1ccc1oc(C(=O)O)c(-c3ccccc3)c12 [Compound 205] |  | 1000 to 5900 |
| Cc1cc(=O)oc2c1ccc1oc(C(=O)c3ccc(O)cc3)c(-c3ccccc3)c12 [Compound 34] |  | 1000 to 5900 |
| Cc1cc(=O)oc2c1ccc1oc(C(=O)c3cccc(OCCCO)c3)c(-c3ccccc3)c12 [Compound 185] |  | 1000 to 5900 |
| C#CCCC(=O)Oc1cccc(C(=O)c2oc3ccc4c(C)cc(=O)oc4c3c2-c2ccccc2)c1 [Compound 202] |  | 1000 to 5900 |
| CCCCOc1cccc(C(=O)c2oc3ccc4c(C)cc(=O)oc4c3c2-c2ccccc2)c1 [Compound 70] | 10 to 999 |  |
| CCCCCCc1c(C(=O)c2ccccc2)oc2ccc3c(C)cc(=O)oc3c12 [Compound 157] | 10 to 999 |  |
| Cc1cc(=O)oc2c1ccc1oc(C(=O)c3ccccc3)c(-c3cccc(Cl)c3)c12 [Compound 136] |  | 1000 to 5900 |
| Cc1cc(=O)oc2c1cc(CC1CO1)c1oc(C(=O)c3ccccc3)c(-c3ccccc3)c12 (centres unmarked) [Compound 18] |  | 1000 to 5900 |

| Structure (SMILES) | IC50 [1] [nM] | IC50 (ranges given) [nM] |
| --- | --- | --- |
| Cc1cc(=O)oc2c1ccc1oc(C(=O)c3ccccc3)c(-c3cc(F)cc(F)c3)c12 [Compound 148] | 10 to 999 |  |
| CCCc1cc(=O)oc2c1ccc1oc(C(=O)c3ccccc3)c(-c3ccccc3)c12 [Compound 14] | 10 to 999 |  |
| Cc1cc(=O)oc2c1ccc1oc(C(=O)c3cc(F)ccc3F)c(-c3ccc(F)cc3)c12 [Compound 221] |  | 1000 to 5900 |
| Cc1cc(=O)oc2c1ccc1oc(C(=O)c3ccccc3)c(C3CCCCC3)c12 [Compound 165] |  | 1000 to 5900 |
| Cc1cc(=O)oc2c1ccc1oc(C(=O)c3ccccc3)c(-c3cc(Br)cc(Br)c3)c12 [Compound 150] | 10 to 999 |  |
| COc1ccc(C(=O)c2oc3ccc4c(C)cc(=O)oc4c3c2-c2ccccc2)c(OC)c1 [Compound 56] |  | 6000 to 25000 |
| Cc1cc(=O)oc2c1ccc1sc(C(=O)c3ccccc3)c(-c3ccccc3)c12 [Compound 26] | 10 to 999 |  |
| COc1ccc(C(=O)c2oc3ccc4c(C)cc(=O)oc4c3c2-c2ccccc2)cc1 [Compound 32] |  | 1000 to 5900 |
| Cc1cc(=O)oc2c1ccc1oc(C(=O)c3cccc(OCCO[Si](C)(C)C(C)(C)C)c3)c(-c3ccccc3)c12 [Compound 189] | 10 to 999 |  |
| Cc1cc(=O)oc2c1ccc1oc(C(=O)c3cccc(OCCOCCOCCOCCCl)c3)c(-c3ccccc3)c12 [Compound 178] |  | 1000 to 5900 |
| Cc1cc(=O)oc2c1ccc1oc(C(=O)c3ccco3)c(-c3ccccc3)c12 [Compound 92] | 10 to 999 |  |
| Cc1ccc(C(=O)c2oc3ccc4c(C)cc(=O)oc4c3c2-c2ccccc2)o1 [Compound 94] |  | 6000 to 25000 |
| Cc1cc(=O)oc2c1ccc1oc(C(=O)c3ccc(Cl)cc3)c(-c3ccccc3)c12 [Compound 49] |  | 6000 to 25000 |
| CCOc1cccc(C(=O)c2oc3ccc4c(C)cc(=O)oc4c3c2-c2cccc(Br)c2)c1 [Compound 260] | 10 to 999 |  |
| Cc1cc(=O)oc2c1ccc1oc(C(=O)c3ccccc3)c(-c3ccc4ccccc4c3)c12 [Compound 147] |  | 1000 to 5900 |
| Cc1cc(=O)oc2c1ccc1oc(C(=O)c3ccccc3)c(-c3cccc(F)c3)c12 [Compound 133] |  | 1000 to 5900 |
| Cc1cc(=O)oc2c1ccc1oc(C(=O)c3ccccc3)c(-c3ccc(Cl)c(Cl)c3)c12 [Compound 224] |  | 6000 to 25000 |
| Cc1cc(=O)oc2c1ccc1oc(C(=O)c3cccs3)c(-c3cccs3)c12 [Compound 257] | 10 to 999 |  |
| Cc1cc(=O)oc2c1ccc1oc(C(=O)c3ccccc3)cc12 [Compound 153] |  | 1000 to 5900 |
| Cc1cc(=O)oc2c1ccc1oc(C(=O)c3ccc(Br)s3)c(-c3ccccc3)c12 [Compound 98] | 10 to 999 |  |
| O=C(c1ccccc1)c1oc2ccc3c4ccccc4c(=O)oc3c2c1-c1ccccc1 [Compound 22] |  | 6000 to 25000 |
| Cc1cc(=O)oc2c1ccc1oc(C(=O)c3ccccn3)c(-c3ccccc3)c12 [Compound 115] | 10 to 999 |  |
| CCCCCc1c(C(=O)c2ccccc2)oc2ccc3c(C)cc(=O)oc3c12 [Compound 156] | 10 to 999 |  |
| Cc1cc(=O)oc2c1ccc1oc(C(=O)c3cccc([N+](=O)[O-])c3)c(-c3ccccc3)c12 [Compound 66] |  | 1000 to 5900 |

| Structure (SMILES) | IC50 [1] [nM] | IC50 (ranges given) [nM] |
| --- | --- | --- |
| Cc1ccc(-c2c(C(=O)c3ccccc3)oc3ccc4c(C)cc(=O)oc4c23)cc1 [Compound 142] | 10 to 999 |  |
| CCOc1cccc(C(=O)c2oc3ccc4c(C)cc(=O)oc4c3c2-c2ccccc2)c1 [Compound 68] | 10 to 999 |  |
| COc1ccccc1C(=O)c1oc2ccc3c(C)cc(=O)oc3c2c1-c1ccccc1 [Compound 30] | 10 to 999 |  |
| C#CCOc1cccc(C(=O)c2oc3ccc4c(C)cc(=O)oc4c3c2-c2ccccc2)c1 [Compound 233] | 10 to 999 |  |
| Cc1cc(=O)oc2c1ccc1oc(C(=O)c3cccc(OCCCO[Si](C)(C)C(C)(C)C)c3)c(-c3ccccc3)c12 [Compound 190] |  | 1000 to 5900 |
| Cc1cc(=O)oc2c1ccc1oc(Cc3ccccc3)c(-c3ccccc3)c12 [Compound 173] | 10 to 999 |  |
| Cc1cc(=O)oc2c1ccc1oc(C(=O)c3cccc(N)c3)c(-c3ccccc3)c12 [Compound 67] |  | 1000 to 5900 |
| Cc1cc(=O)oc2c1ccc1oc(C(=O)c3cccc(OC(=O)C#Cc4ccccc4)c3)c(-c3ccccc3)c12 [Compound 201] |  | 1000 to 5900 |
| CCCOc1cccc(C(=O)c2oc3ccc4c(C)cc(=O)oc4c3c2-c2ccccc2)c1 [Compound 69] | 10 to 999 |  |
| Cc1cc(=O)oc2c1ccc1oc(C(=O)c3ccccc3)c(-c3cccc(C(=O)O)c3)c12 [Compound 207] |  | 1000 to 5900 |
| Cc1cc2ccc3oc(C(=O)c4ccccc4)c(-c4ccccc4)c3c2oc1=O [Compound 3] |  | 1000 to 5900 |
| COc1cccc(C(=O)c2oc3ccc4c(C)cc(=O)oc4c3c2-c2ccccc2)c1 [Compound 31] | 10 to 999 |  |
| Cc1cc(=O)oc2c1ccc1oc(C(=O)c3ccccc3)c(-c3ccco3)c12 [Compound 159] | 10 to 999 |  |
| Cc1cc(=O)oc2c1ccc1oc(C(=O)c3cccc(OCCCCCCO)c3)c(-c3ccccc3)c12 [Compound 188] | 10 to 999 |  |
| Cc1cc(=O)oc2c1ccc1oc(C(=O)c3cccc(OCCCN4CCOCC4)c3)c(-c3ccccc3)c12 [Compound 81] |  | 1000 to 5900 |
| Cc1cc(=O)oc2c1ccc1[nH]c3ccccc3c12 [Compound 231] |  | 6000 to 25000 |
| Cc1cc(=O)oc2c1ccc1oc(C(=O)c3cccc(OCCOC4OC(O)C(O)C(O)C4CO)c3)c(-c3ccccc3)c12 (centres unmarked) [Compound 195] |  | 6000 to 25000 |
| Cc1cc(=O)oc2c1ccc1oc(C(=O)c3cc(F)ccc3F)c(-c3ccccc3)c12 [Compound 61] | 10 to 999 |  |
| Cc1cc(=O)oc2c1ccc1oc(C(=O)c3ccc(Cl)c(Cl)c3)c(-c3ccccc3)c12 [Compound 58] |  | 1000 to 5900 |
| Cc1ccc(C(=O)c2oc3ccc4c(C)cc(=O)oc4c3c2-c2ccccc2)cc1 [Compound 41] | 10 to 999 |  |
| C=CCCOc1cccc(C(=O)c2oc3ccc4c(C)cc(=O)oc4c3c2-c2ccccc2)c1 [Compound 77] | 10 to 999 |  |
| Cc1cc(=O)oc2c1ccc1oc(C(=O)c3cccc(OCCN4CCOCC4)c3)c(-c3ccccc3)c12 [Compound 80] |  | 1000 to 5900 |
| Cc1cc(=O)oc2c1ccc1oc(C(=O)c3ccccc3)c(-c3cccc([N+](=O)[O-])c3)c12 [Compound 144] | 10 to 999 |  |
